Results as given in US20140371069A1, “Short-Chain Alkyl Sulfonates in Pesticide Formulations and Applications” (priority 2011, published 2014).
Like-named read-outs stand apart in the source and are kept apart here.

Columns and labels:
[1] = Stability of pesticide formulation containing glufosinate-ammonium and C8 ether sulfate at 1:1 weight ratio with test hydrotrope
Source text: Specifically, the pesticide active in the pesticide formulation is glufosinate-ammonium and the adjuvant is C8 ether sulfate.

[2] = Separation of the formulations on standing at room temperature (ternary diagram); format: physicochemical; settings: for region of stability (blue region) in ternary diagram of percentage of separation: glufosinate ammonium 25.8%, C8 ether sulfate 30.6%, hydrotrope 0-10%, propylene glycol 0-15% w/w
Description: A design experiment was performed in which pesticide formulations containing the following were prepared: [table] The formulations were allowed to sit for 24 hours at room temperature and the stability of the formulations was assessed. FIG. 1 illustrates the results of the experiment. FIG. 1 is a ternary diagram showing regions of varying percentages of separation after 24 hours at room temperature of the formulations containing the above-listed components. The numbers associated with the small colored bar in the upper left hand corner of the figure indicate the percentage of separation in the samples. The colors in the bar correspond to the colored regions in the ternary diagram. […] An experiment was performed in which pesticide formulations containing the following were prepared: [table] The formulations were allowed to sit for two hours at room temperature and the stability of the formulations was assessed. FIG. 3 illustrates the results of the experiment. FIG. 3 is a ternary diagram showing regions of varying percentages of separation after two hours at room temperature of the formulations containing the above-listed components.

[3] = Separation of the formulations after one freeze/thaw cycle (ternary diagram); format: physicochemical; settings: FIG. 2 versus FIG. 4
Description: The formulations listed in Example 1 were subjected to a freeze/thaw cycle in which the formulations were frozen and thawed to room temperature. The stability of the formulations was then assessed. FIG. 2 illustrates the results of the assessment. FIG. 2 is a ternary diagram showing regions of varying percentages of separation after one freeze/thaw cycle of the formulations.
A freeze/thaw cycle changes the solubility of some of the components, therefore, by subjecting the formulations to a freeze/thaw cycle, the effect of the solubility change on the stability of the formulations can be assessed.
The formulations listed in Comparative Example 1 were subjected to a freeze/thaw cycle and the stability of the formulations was subsequently assessed. FIG. 4 illustrates the results of the assessment. FIG. 4 is a ternary diagram showing regions of varying percentages of separation after one freeze/thaw cycle of the formulations.

[4] = glufosinate-ammonium and C8 ether sulfate at 1:1 weight ratio
[5] = after 24 hours at room temperature, FIG. 1

Molecule | stability of the pesticide formulation containing the material as hydrotrope [1] | stability of the pesticide formulation containing the material as hydrotrope [1, 4] | also measured
C6 alcohol+4EO sodium salt | developed two phases that separated very quickly | – | –
sodium xylene sulfonate | – | developed two phases that separated very quickly | region of stability (blue region) in ternary diagram of percentage of separation ([2]; after two hours at room temperature, FIG. 3): small
COC(C)COC(C)CO (stereo not drawn) [dipropylene glycol monomethyl ether] | developed two phases that separated very quickly | – | –
CCCCCCCCS(=O)(=O)[O-].[Na+] [sodium octane sulfonate] | – | – | effectiveness as a hydrotrope compared with sodium xylene sulfonate [3]: more effective as a hydrotrope than sodium xylene sulfonate; effectiveness as a hydrotrope in the formulations [2, 5]: effective as a hydrotrope; region of stability (blue region) in ternary diagram of percentage of separation [2, 5]: large; effectiveness as a hydrotrope compared with sodium xylene sulfonate ([2]; room temperature, FIG. 1 (24 hours) versus FIG. 3 (two hours)): significantly more effective as a hydrotrope than sodium xylene sulfonate
CC(C)c1ccc(S(=O)(=O)[O-])cc1.[Na+] [sodium cumene sulfonate] | – | developed two phases that separated very quickly | –
C4 alcohol+4EO sulfate esters sodium salt | developed two phases that separated very quickly | – | –
CC(O)CO (stereo not drawn) [propylene glycol] | – | developed two phases that separated very quickly | –
C4 alcohol+2EO sulfate ester sodium salt | developed two phases that separated very quickly | – | –
